The text below walks through data of US20080039513A1, “Marine Compounds with Calcium Channel Blocking Properties for the Treatment of Cognitive or Neurodegenerative Diseases” (priority 2004, published 2008).

The target of data set [1] is T1, AChE (from bovine erythrocytes) (Bos taurus, UniProt P23795).
T1 construct: AChE (Sigma Chemical Co. from bovine erythrocytes); purchased Sigma Chemical Co; host or cells: bovine erythrocytes
T1 sequence (P23795 31-614 isoform P23795-2 limits assumed): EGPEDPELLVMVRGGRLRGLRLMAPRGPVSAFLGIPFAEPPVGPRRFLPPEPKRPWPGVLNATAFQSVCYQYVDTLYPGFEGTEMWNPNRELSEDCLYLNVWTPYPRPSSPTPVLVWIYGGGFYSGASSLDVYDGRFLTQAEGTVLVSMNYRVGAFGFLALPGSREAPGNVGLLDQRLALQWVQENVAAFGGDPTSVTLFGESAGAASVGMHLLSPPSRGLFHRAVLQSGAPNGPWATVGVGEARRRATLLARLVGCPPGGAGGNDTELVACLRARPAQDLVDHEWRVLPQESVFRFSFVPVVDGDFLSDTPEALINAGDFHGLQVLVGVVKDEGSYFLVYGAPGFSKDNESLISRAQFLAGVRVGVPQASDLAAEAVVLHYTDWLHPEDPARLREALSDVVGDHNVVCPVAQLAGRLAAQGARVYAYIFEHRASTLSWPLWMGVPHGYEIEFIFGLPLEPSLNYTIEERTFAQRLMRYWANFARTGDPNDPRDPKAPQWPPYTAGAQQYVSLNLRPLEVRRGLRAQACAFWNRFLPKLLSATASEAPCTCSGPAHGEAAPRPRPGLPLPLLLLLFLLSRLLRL
The experiment in a line: AChE inhibition (Ellman colorimetric method). The class given is biochemical. The conditions noted are these: read-out: % inhibition AChE (concentration); for inhibition at 30 µM: 3 × 10^−5 M. The procedure: AChE inhibitory activity was evaluated at 30° C. by the colorimetric method reported by Ellman (Ellman, G. L. et al., 1961, Biochem Pharmacol, 7, 88-95). The assay solution consisted of 0.1 M phosphate buffer pH 8, 0.3 mM 5,5′-dithiobis (2-nitrobenzoic acid) (DTNB, Ellman's reagent), 0.02 units AChE (Sigma Chemical Co. from bovine erythrocytes), and 0.5 mM acetylthiocholine iodide as the substrate of the enzymatic reaction. The compounds tested were added to the assay solution and pre incubated with the enzyme for 5 min at 30° C. After that period, the substrate was added. The absorbance changes at 405 nm were recorded for 5 min with a microplate reader Digiscan 340T, the reaction rates were compared, and the percent inhibition due to the presence of test compounds was calculated. The reaction rate was calculated with, at least, triplicate measurements, and the percent inhibition due to the presence of test compound was calculated relative to the compound-free control.

The target of data set [2] is T2, BuChE from human serum (Homo sapiens, UniProt P06276).
T2 construct: 0.01 units BuChE from human serum; from tissue; host or cells: human serum
The data set is described as follows: BuChE inhibition (Ellman colorimetric method). The class given is biochemical. The protocol:
BuChE inhibitory activity was evaluated at 30° C. by the colorimetric method reported by Ellman (Ellman, G. L. et al., 1961, Biochem Pharmacol, 7, 88-95). The assay solution consisted of 0.01 units BuChE from human serum, 0.1 M sodium phosphate buffer pH 8, 0.3 mM 5,5′-dithiobis (2-nitrobenzoic acid) (DTNB, Ellman's reagent), and 0.5 mM butyrylthiocholine iodide as the substrate of the enzymatic reaction. Enzyme activity was determined by measuring the absorbance at 405 nm during 5 minutes with a microplate reader Digiscan 340T. The tested compounds were preincubated with the enzyme for 10 minutes at 30° C. The reaction rate was calculated with, at least, triplicate measurements.

The test system of data set [3] is VDCC. The experiment in a line: VDCC blockade: intracellular Ca2+ (Fluo-4) in SH-SY5Y cells on depolarization with 60 mM KCl. The class given is cell-based, human. The protocol: SH-SY5Y cells were plated at 5×10^5 cells per well into Black/Clear Bottom 96-well culture plate, 48 hours before treatment. Cells were loaded with Fluo-4, 5 μM and pluronic acid, 0.1%, for 30 min at 37° C., 5% CO2, following a incubation of 15 min at RT in Krebs-HEPES solution. Immediately cells are exposed to the samples at different concentrations for 10 min. […] After the treatment, the fluorescence is measured in a Fluostar Optima plate reader (BMG) in response to depolarization with 60 mM KCl. The excitation wavelength was 485 nm, and that of emission 520 nm. […] Three compounds isolated from this extract have shown calcium channel blocking properties in SH-SY5Y neuroblastoma cells.

Data set [4] has as its target T3, AChE peripheral site (Bos taurus, UniProt P23795).
T3 sequence (P23795 31-613): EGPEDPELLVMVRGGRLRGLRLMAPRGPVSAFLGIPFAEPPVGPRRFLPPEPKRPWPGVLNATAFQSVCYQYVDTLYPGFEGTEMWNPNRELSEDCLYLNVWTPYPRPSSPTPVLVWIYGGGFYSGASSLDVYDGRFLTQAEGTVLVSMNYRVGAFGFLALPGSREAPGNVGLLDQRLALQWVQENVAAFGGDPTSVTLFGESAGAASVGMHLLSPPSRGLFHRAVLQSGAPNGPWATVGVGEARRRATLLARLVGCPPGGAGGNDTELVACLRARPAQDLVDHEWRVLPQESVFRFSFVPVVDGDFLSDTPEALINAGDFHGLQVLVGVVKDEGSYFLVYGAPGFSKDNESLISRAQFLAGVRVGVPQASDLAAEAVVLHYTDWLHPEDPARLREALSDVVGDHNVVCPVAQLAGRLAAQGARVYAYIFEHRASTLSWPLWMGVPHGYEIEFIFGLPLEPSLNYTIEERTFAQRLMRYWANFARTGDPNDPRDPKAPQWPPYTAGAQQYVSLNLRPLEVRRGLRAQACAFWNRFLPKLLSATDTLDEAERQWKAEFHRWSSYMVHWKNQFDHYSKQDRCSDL
The experiment in a line: Propidium competition (fluorescence). The class given is binding. The conditions noted are these: 30 μM compound; 5 μM AChE, 20 μM propidium iodide. The protocol: Fluorescence was measured in a Fluostar Optima plate reader (BMG). Measurements were carried out in 100 μl solution volume, in 96-well plates. The buffer used was 1 mM Tris/HCl, pH 8.0. 5 μM AChE was incubated, at least 6 hours, with the molecule at different concentrations. 20 μM propidium iodide was added 10 min before fluorescence measurement. The excitation wavelength was 485 mn and that of emission 620 nm.

In data set [5] the test system is human neuroblastoma cell line SH-SY5Y. The class given is cell-based. The conditions noted are these: for Toxicity (in words): at 10 μM. The protocol: The cytotoxicity effect of the molecules was tested in the human neuroblastoma cell line SH-SY5Y. These cells were cultured in 96-well plates in minimum essential medium, Ham's F12 medium, supplemented with 10% fetal bovine serum, 1% glutamine and 1% penicillin/streptomycin, and grown in a 5% CO2 humidified incubator at 37° C. Cells were plated at 10^4 cells for each well, at least, 48 hours before treatment. Cells were exposed for 24 hours to the compounds at different concentrations (from 10^−5 to 10^−9), quantitative assessment of cell death was made by measurement of the intracellular enzyme lactate dehydrogenase (LDH) (citotoxicity detection kit, Roche). The quantity of LDH was measured was evaluated in a microplate reader Anthos 2010, at 492 and 620 nm. Controls were taken as 100% viability.

The mark [6] stands for this setting: SH-SY5Y, 24 hours exposure, LDH.

Where two headings read alike, the source gives them in different places.

T2 sequence (P06276 29-602): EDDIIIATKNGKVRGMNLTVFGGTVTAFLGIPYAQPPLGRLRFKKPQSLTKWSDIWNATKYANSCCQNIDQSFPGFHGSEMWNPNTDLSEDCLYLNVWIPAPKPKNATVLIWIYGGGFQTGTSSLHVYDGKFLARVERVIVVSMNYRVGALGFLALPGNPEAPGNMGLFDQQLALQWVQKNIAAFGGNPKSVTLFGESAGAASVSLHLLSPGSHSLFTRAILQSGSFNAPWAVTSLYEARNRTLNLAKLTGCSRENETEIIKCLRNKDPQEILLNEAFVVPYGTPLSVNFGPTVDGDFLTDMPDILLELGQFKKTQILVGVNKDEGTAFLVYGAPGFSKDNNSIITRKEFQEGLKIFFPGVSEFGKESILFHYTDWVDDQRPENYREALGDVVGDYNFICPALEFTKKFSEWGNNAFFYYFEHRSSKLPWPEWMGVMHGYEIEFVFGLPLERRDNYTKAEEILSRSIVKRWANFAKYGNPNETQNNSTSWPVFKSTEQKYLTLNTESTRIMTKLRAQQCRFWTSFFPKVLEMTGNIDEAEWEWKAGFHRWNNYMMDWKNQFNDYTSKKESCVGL

Take `COC1=C(Br)[C@@H](O)[C@]2(C=C1Br)CC(C(=O)NCCc1cc(Br)c(OCCCNC(=O)C3=NO[C@]4(C=C(Br)C(OC)=C(Br)[C@@H]4O)C3)c(Br)c1)=NO2` [Compound 5, 11,19-dideoxyfistularin]: the values for the inhibition at 30 µM in data set [1] and in data set [2] were 63 ± 3% and 57 ± 7%, respectively. Further, the “% inhibition VDCC (concentration)” value in data set [3] (1.8 × 10^−5 M) is reported as 34 ± 14%. In addition, the “Propidium competition (30 μM)” value in data set [4] is “YES”. The “Toxicity” value in data set [5] (setting [6]) was over 100 µM.

As for `COC1=C(Br)[C@@H](O)[C@]2(C=C1Br)CC(C(=O)NCCCOc1c(Br)cc(C/C(=N\O)C(=O)NCCc3cnc[nH]3)cc1Br)=NO2` [Compound 8], the inhibition at 100 µM in data set [1] is 0%. Moreover, the “% inhibition VDCC (concentration)” value in data set [3] (10^−5 M) was found to be 96 ± 3%; in data set [3] (10^−6 M), 48%; in data set [3] (10^−7 M), 9%. Also, in data set [5] (setting [6]), the “Toxicity (in words)” value was “Not toxic”.

`COC1=C(Br)[C@H](O)[C@](O)(CC#N)C=C1Br` [Compound 2, Aeroplysinin-1]: the results for the inhibition at 30 µM in data set [1] and in data set [2] were 19 ± 3% and 0%, respectively. Moreover, the “% inhibition VDCC (concentration)” value in data set [3] (concentration not given) is given as 0%. In data set [5] (setting [6]), the “Toxicity” value turned out to be 6 µM.

Turning to `COC1=C(Br)[C@@H]2OC(=O)C[C@]2(O)C=C1Br` [Compound 1, Aeroplysinin-2], the figures for the inhibition at 30 µM in data set [1] and in data set [2] were 7 ± 1% and 0%, respectively. Also, the “% inhibition VDCC (concentration)” value in data set [3] (concentration not given) is listed as 0%. Besides, the “Toxicity” value in data set [5] (setting [6]) was determined as 0.6 µM.

As to `COC1=C(Br)[C@H](O)[C@@]2(C=C1Br)CC(C(=O)NCCCCNC(=O)C1=NO[C@]3(C=C(Br)C(OC)=C(Br)[C@@H]3O)C1)=NO2` [Compound 3, Aerothionin], the inhibition at 30 µM in data set [1] amounted to 12 ± 1%; in data set [2] it was 13 ± 1%. Also, in data set [3] (1.8 × 10^−5 M), the “% inhibition VDCC (concentration)” value is reported as 75 ± 17%. In data set [5] (human, 24 h), the “Toxicity” value came to 18 µM.

As for `COC1=C(Br)[C@@H](O)[C@]2(C=C1Br)CC(C(=O)NCCc1cnc[nH]1)=NO2` [Compound 6], the inhibition at 100 µM in data set [1] (10^−4 M) was 0%. Besides, the “% inhibition VDCC (concentration)” value in data set [3] (10^−5 M) was determined as 18 ± 10%. In addition, the “Toxicity (in words)” value in data set [5] (setting [6]) is given as “Not toxic”.

`COC1=C(Br)[C@@H](O)[C@]2(C=C1Br)CC(C(=O)NCCCOc1c(Br)cc(CCN)cc1Br)=NO2` [Compound 7]: the inhibition at 100 µM in data set [1] (10^−4 M) was 9.5 ± 3%. Further, the inhibition at 10 µM in data set [1] (10^−5 M) came out at 5 ± 3%. In addition, in data set [3] (10^−5 M), the “% inhibition VDCC (concentration)” value is 67 ± 14.5%. Besides, the “Toxicity (in words)” value in data set [5] (setting [6]) is recorded as “Not toxic”.

In the case of `COC1=C(Br)[C@H](O)[C@@]2(C=C1Br)CC(C(=O)NCCCCCNC(=O)C1=NO[C@]3(C=C(Br)C(OC)=C(Br)[C@@H]3O)C1)=NO2` [Compound 4, Homoaerothionin], the figures for the inhibition at 30 µM in data set [1] and in data set [2] were 9 ± 4% and 10 ± 1%, respectively. The “% inhibition VDCC (concentration)” value in data set [3] (1.8 × 10^−5 M) turned out to be 95 ± 4%. Also, the “Propidium competition (30 μM)” value in data set [4] is “YES”. Also, the “Toxicity” value in data set [5] (setting [6]) was 6 µM.
